Data published in US20250186597A1, “TARGETED IMMUNE ACTIVATION WITH IL-18 IMMUNOCYTOKINES” (BRIGHT PEAK THERAPEUTICS AG, priority 2023, published 2025).

Tested on: parental PD-1 negative KG-1 cells
Assay: IFN gamma secretion assay in parental PD-1 negative KG-1 cells (Example 11)
Assay type: cell-based, human
Settings: IFNγ secretion
Experimental: The KG-1 cell line was used to generate a PD-1 expressing cell line and furthermore, to measure IFNγ release upon incubation with IL-18 variants and corresponding IL-18 immunocytokines.
IFNγ release was assessed in PD-1 positive (transduced) KG-1 cells, as well as in the parental PD-1 negative cells. 0.5×10^5 cells were seeded into a 96-well U-bottom plate in culture media (RPMI, 10% FBS, 1% L-Glutamine) and stimulated with IL-18 variants/ICs for 20-24 h. The test items were diluted to 100 nM in culture medium, followed by 7 10-fold serial dilutions. The lowest concentration assessed was […]. After incubation, IFNγ release was measured using the LEGENDplex custom human mix and match KIT (Biolegend LEGENDplex™ Human IFN-γ Capture Bead B5, 13X #740942, LEGENDplex™ HU Essential Immune Response Panel Detection Abs, #740931, LEGENDplex™ Buffer Set A #740368). To this end, cell culture supernatant was collected and diluted 1:1 with Assay Buffer. Fluorescence measurements were done with a Quanteon Flow Cytometer from Acea Biosciences. For analysis, MFI values (median fluorescence intensity) were exported and plotted against concentrations used. The EC50 values (half maximal effective concentration) were calculated based on a variable slope and four parameter analysis using GraphPad PRISM software version 9.

## SEQ ID NO: 1: Native sequence of human IL-18 (bioactive form) [reference compound]
  EC50: 0.387 nM
